Series [1] relates to Human immunodeficiency virus 1. The series is described as follows: Antiviral activity against HIV-1 IIIB assessed as inhibition of viral replication measured after 4 days by ELISA. It counts as functional, organism-based. As to conditions: Human immunodeficiency virus 1, IIIB, 96 h.
Series [2] relates to Human immunodeficiency virus 1. The series is described as follows: Antiviral activity against T20-sensitive HIV-1 D36G assessed as inhibition of viral replication measured after 4 days by ELISA. Type of series: functional, organism-based.
The nature of series [3]: Selectivity ratio of EC50 for antiviral activity against T20-resistant HIV-1 V38E/N42S to EC50 for antiviral activity against T20-sensitive HIV-1 D36G. Type of series: functional.
The test system of series [4] is Human immunodeficiency virus 1. The experiment in a line: Antiviral activity against T20-resistant HIV-1 V38E/N42S assessed as inhibition of viral replication measured after 4 days by ELISA. It counts as functional, organism-based.
In series [5] the test system is Human immunodeficiency virus 1. The experiment in a line: Antiviral activity against T20-resistant HIV-1 V38A/N42T assessed as inhibition of viral replication measured after 4 days by ELISA. Type of series: functional, organism-based.
A short description of series [6]: Selectivity ratio of EC50 for antiviral activity against T20-resistant HIV-1 V38A/N42T to EC50 for antiviral activity against T20-sensitive HIV-1 D36G. It counts as functional.
Series [7] deals with Human immunodeficiency virus 1. The experiment in a line: Antiviral activity against HIV-1 IIIB (B, X4) assessed as inhibition of viral replication measured after 4 days by ELISA. Type of series: functional, organism-based. As to conditions: Human immunodeficiency virus 1, IIIB (B, X4), 96 h.
The test system of series [8] is Human immunodeficiency virus 1. The experiment in a line: Binding affinity to HIV1 gp41 NHR target surrogate N36 assessed as melting temperature at 10 uM incubated for 30 mins by CD spectroscopy.
The subject of series [9] is Human immunodeficiency virus 1. The series is described as follows: Binding affinity to HIV1 gp41 NHR target surrogate N36 assessed as alpha-helicity at 10 uM incubated for 30 mins by CD spectroscopy (reference value: 26 %).
Series [10] is described as follows: Alpha-helicity of compound in PBS buffer at pH 7.4 at 10 uM incubated for 30 mins by CD spectroscopy relative to control. Type of series: physicochemical. As to conditions: pH 7.4, 0.5 h.
In series [11] the test system is Human immunodeficiency virus 1. The experiment in a line: Binding affinity to HIV1 gp41 NHR target surrogate T21 assessed as melting temperature at 10 uM incubated for 30 mins by CD spectroscopy.
For series [12], the system named is Human immunodeficiency virus 1. The experiment in a line: Binding affinity to HIV1 gp41 NHR target surrogate T21 assessed as binding constant, K by isothermal titration calorimetry.
The subject of series [13] is Human immunodeficiency virus 1. The series is described as follows: Binding affinity to HIV1 gp41 NHR target surrogate T21 assessed as alpha-helicity at 10 uM incubated for 30 mins by CD spectroscopy (reference value: 66 %).
The subject of series [14] is Human immunodeficiency virus 1. The experiment in a line: Binding affinity to HIV1 gp41 NHR target surrogate T21 at 50 uM incubated for 30 mins by N-PAGE analysis.

Results on eleven molecules are retold here after ChEMBL document CHEMBL5131511, “Design of artificial α-helical peptides targeting both gp41 deep pocket and subpocket as potent HIV-1 fusion inhibitors” (Eur J Med Chem, 2022).

pEC50: −log10 of the molar value. The source made the active and inactive calls. The calls are words filed in the database; no cut-off is given here. Where a SMILES comes first, the peptide text is derived from it. [ ]: non-standard residue; d: D form. The star is where a group is joined. O(cholesteryl) = CC(C)CCC[C@@H](C)[C@H]1CC[C@H]2[C@@H]3CC=C4C[C@@H](O*)CC[C@]4(C)[C@H]3CC[C@]12C; PEG12 = NCCOCCOCCOCCOCCOCCOCCOCCOCCOCCOCCOCCOCCC(=O)O; PEG8 = NCCOCCOCCOCCOCCOCCOCCOCCOCCC(=O)O; PEG4 = NCCOCCOCCOCCOCCC(=O)O A value given as a limit tells only on which side of the number the result lay.

Regarding `CC[C@H](C)[C@H](NC(=O)[C@H](CCC(N)=O)NC(=O)[C@H](CCC(=O)O)NC(=O)[C@H](CCC(=O)O)NC(=O)[C@@H](NC(=O)[C@H](CCCCN)NC(=O)[C@H](CCCCN)NC(=O)[C@@H](NC(=O)[C@H](CC(C)C)NC(=O)[C@H](CCC(=O)O)NC(=O)[C@H](CCC(=O)O)NC(=O)[C@H](CO)NC(=O)[C@H](CCCCN)NC(=O)[C@H](CCCCN)NC(=O)[C@@H](NC(=O)[C@H](CC(C)C)NC(=O)[C@H](CCC(=O)O)NC(=O)[C@H](CCC(=O)O)NC(=O)[C@@H](NC(=O)[C@H](CCCCN)NC(=O)[C@H](CCCCN)NC(=O)[C@H](CO)NC(=O)[C@H](Cc1c[nH]c2ccccc12)NC(=O)[C@H](CCC(=O)O)NC(=O)[C@H](CCC(=O)O)NC(=O)[C@H](Cc1c[nH]c2ccccc12)NC(=O)[C@H](CCCCN)NC(=O)[C@H](CCCCN)NC(=O)[C@@H](NC(=O)[C@H](CO)NC(=O)[C@H](CCC(=O)O)NC(=O)[C@H](CCC(=O)O)NC(=O)[C@H](CCC(N)=O)NC(C)=O)[C@@H](C)CC)[C@@H](C)CC)[C@@H](C)CC)[C@@H](C)CC)[C@@H](C)CC)C(=O)N[C@@H](CCCCN)C(=O)N[C@@H](CCCCN)C(=O)NCCOCCOCCOCCOCCOCCOCCOCCOCCOCCOCCOCCOCCC(=O)N[C@@H](CS)C(=O)O[C@H]1CC[C@@]2(C)C(=CC[C@H]3[C@@H]4CC[C@H]([C@H](C)CCCC(C)C)[C@@]4(C)CC[C@@H]32)C1` (Ac-QEESIKKWEEWSKKIEELIKKSEELIKKIEEQIKK[PEG12]C-{O(cholesteryl)}), the pEC50 in [1] is 8.28.

With enfuvirtide, the pEC50 is 8.08 in series [1], 7.39 in series [2], less than 6.00 in [4] and 6.16 in [5]. Besides, the “Ratio EC50” value is more than 24 in series [3] and 17 in series [6].

“Ac-QEESIKKWEEWDKKIEELIKKSEELIKKIEEQIKK-NH2”: the pEC50 in series [7] was 7.39.

Regarding “Ac-QEENIKKWEEWDKKIEELIKKSEELIKKIEEQIKK-NH2”, in [7], the pEC50 is 7.18.

With `CC[C@H](C)[C@H](NC(=O)[C@H](CCC(N)=O)NC(=O)[C@H](CCC(=O)O)NC(=O)[C@H](CCC(=O)O)NC(=O)[C@@H](NC(=O)[C@H](CCCCN)NC(=O)[C@H](CCCCN)NC(=O)[C@@H](NC(=O)[C@H](CC(C)C)NC(=O)[C@H](CCC(=O)O)NC(=O)[C@H](CCC(=O)O)NC(=O)[C@H](CO)NC(=O)[C@H](CCCCN)NC(=O)[C@H](CCCCN)NC(=O)[C@@H](NC(=O)[C@H](CC(C)C)NC(=O)[C@H](CCC(=O)O)NC(=O)[C@H](CCC(=O)O)NC(=O)[C@@H](NC(=O)[C@H](CCCCN)NC(=O)[C@H](CCCCN)NC(=O)[C@H](CO)NC(=O)[C@H](Cc1c[nH]c2ccccc12)NC(=O)[C@H](CCC(=O)O)NC(=O)[C@H](CCC(=O)O)NC(=O)[C@H](Cc1c[nH]c2ccccc12)NC(=O)[C@H](CCCCN)NC(=O)[C@H](CCCCN)NC(=O)[C@@H](NC(=O)[C@H](CO)NC(=O)[C@H](CCC(=O)O)NC(=O)[C@H](CCC(=O)O)NC(=O)[C@H](CCC(N)=O)NC(C)=O)[C@@H](C)CC)[C@@H](C)CC)[C@@H](C)CC)[C@@H](C)CC)[C@@H](C)CC)C(=O)N[C@@H](CCCCN)C(=O)N[C@@H](CCCCN)C(=O)NCCOCCOCCOCCOCCC(=O)N[C@@H](CS)C(=O)O[C@H]1CC[C@@]2(C)C(=CC[C@H]3[C@@H]4CC[C@H]([C@H](C)CCCC(C)C)[C@@]4(C)CC[C@@H]32)C1` (Ac-QEESIKKWEEWSKKIEELIKKSEELIKKIEEQIKK[PEG4]C-{O(cholesteryl)}), in [1], the pEC50 was 7.35.

For the molecule `CC[C@H](C)[C@H](NC(=O)[C@H](CO)NC(=O)[C@H](CCC(=O)O)NC(=O)[C@H](CCC(=O)O)NC(=O)[C@H](CCC(N)=O)NC(C)=O)C(=O)N[C@@H](CCCCN)C(=O)N[C@@H](CCCCN)C(=O)N[C@@H](Cc1c[nH]c2ccccc12)C(=O)N[C@@H](CCC(=O)O)C(=O)N[C@@H](CCC(=O)O)C(=O)N[C@@H](Cc1c[nH]c2ccccc12)C(=O)N[C@@H](CO)C(=O)N[C@@H](CCCCN)C(=O)N[C@@H](CCCCN)C(=O)N[C@H](C(=O)N[C@@H](CCC(=O)O)C(=O)N[C@@H](CCC(=O)O)C(=O)N[C@@H](CC(C)C)C(=O)N[C@H](C(=O)N[C@@H](CCCCN)C(=O)N[C@@H](CCCCN)C(=O)N[C@@H](CO)C(=O)N[C@@H](CCC(=O)O)C(=O)N[C@@H](CCC(=O)O)C(=O)N[C@@H](CC(C)C)C(=O)N[C@H](C(=O)N[C@@H](CCCCN)C(=O)N[C@@H](CCCCN)C(=O)N[C@H](C(=O)N[C@@H](CCC(=O)O)C(=O)N[C@@H](CCC(=O)O)C(=O)N[C@@H](CCC(N)=O)C(=O)N[C@H](C(=O)N[C@@H](CCCCN)C(=O)N[C@@H](CCCCN)C(=O)N[C@@H](CS)C(=O)O[C@H]1CC[C@@]2(C)C(=CC[C@H]3[C@@H]4CC[C@H]([C@H](C)CCCC(C)C)[C@@]4(C)CC[C@@H]32)C1)[C@@H](C)CC)[C@@H](C)CC)[C@@H](C)CC)[C@@H](C)CC)[C@@H](C)CC` (Ac-QEESIKKWEEWSKKIEELIKKSEELIKKIEEQIKKC-{O(cholesteryl)}), in [1], the pEC50 is less than 6.30.

As to “Ac-QEENNKKWEEWDKKIEELIKKSEELIKKIEEQIKK-NH2”, in [7], the pEC50 was 7.16.

As for Ac-WEEWDKKIEELIKKSEELIKKIEEQIKK-NH2, the pEC50 in series [7] is less than 5.00.

Regarding “Ac-QEESIKKWEEWSKKIEELIKKSEELIKKIEEQIKK-NH2”, the Tm amounted to 52 °C in series [8] and 74 °C in [11]. Also, the Activity is 92% in series [9], 63% in series [10] and 100% in series [13]. For the same molecule, the pEC50 in series [7] was 7.19. In series [12], the K is 1.59 10^5/M. In [14], the outcome was Active.

Consider `CC[C@H](C)[C@H](NC(=O)[C@H](CCC(N)=O)NC(=O)[C@H](CCC(=O)O)NC(=O)[C@H](CCC(=O)O)NC(=O)[C@@H](NC(=O)[C@H](CCCCN)NC(=O)[C@H](CCCCN)NC(=O)[C@@H](NC(=O)[C@H](CC(C)C)NC(=O)[C@H](CCC(=O)O)NC(=O)[C@H](CCC(=O)O)NC(=O)[C@H](CO)NC(=O)[C@H](CCCCN)NC(=O)[C@H](CCCCN)NC(=O)[C@@H](NC(=O)[C@H](CC(C)C)NC(=O)[C@H](CCC(=O)O)NC(=O)[C@H](CCC(=O)O)NC(=O)[C@@H](NC(=O)[C@H](CCCCN)NC(=O)[C@H](CCCCN)NC(=O)[C@H](CO)NC(=O)[C@H](Cc1c[nH]c2ccccc12)NC(=O)[C@H](CCC(=O)O)NC(=O)[C@H](CCC(=O)O)NC(=O)[C@H](Cc1c[nH]c2ccccc12)NC(=O)[C@H](CCCCN)NC(=O)[C@H](CCCCN)NC(=O)[C@@H](NC(=O)[C@H](CO)NC(=O)[C@H](CCC(=O)O)NC(=O)[C@H](CCC(=O)O)NC(=O)[C@H](CCC(N)=O)NC(C)=O)[C@@H](C)CC)[C@@H](C)CC)[C@@H](C)CC)[C@@H](C)CC)[C@@H](C)CC)C(=O)N[C@@H](CCCCN)C(=O)N[C@@H](CCCCN)C(=O)NCCOCCOCCOCCOCCOCCOCCOCCOCCC(=O)N[C@@H](CS)C(=O)O[C@H]1CC[C@@]2(C)C(=CC[C@H]3[C@@H]4CC[C@H]([C@H](C)CCCC(C)C)[C@@]4(C)CC[C@@H]32)C1` (Ac-QEESIKKWEEWSKKIEELIKKSEELIKKIEEQIKK[PEG8]C-{O(cholesteryl)}), for which the pEC50 in series [1] was 7.67.

As for “Ac-QIWNNMTWEEWDKKIEELIKKSEELIKKIEEQIKK-NH2”, in series [7], the pEC50 is 7.44.
